Values after ≈ are worked out from the molar mass of the structure shown.
Columns and labels:
Escherichia coli [1] = assay: microbe, parasite or virus in culture
Description: Antimicrobial activity against Escherichia coli expressing beta-lactamase CTXM-15 by CLSI broth microdilution method

Escherichia coli [2] = assay: Antimicrobial activity against Escherichia coli expressing beta-lactamase KPC-2 by CLSI broth microdilution method; format: functional
Escherichia coli [3] = assay: microbe, parasite or virus in culture; remark: listed apart in the source
Description: Antimicrobial activity against Escherichia coli expressing beta-lactamase AmpC by CLSI broth microdilution method

Escherichia coli [4] = assay: microbe, parasite or virus in culture; remark: listed apart in the source
Description: Antimicrobial activity against Escherichia coli expressing beta-lactamase SHV-12 by CLSI broth microdilution method

Escherichia coli [5] = assay: microbe, parasite or virus in culture; remark: listed apart in the source
Description: Antimicrobial activity against Escherichia coli expressing beta-lactamase TEM-10 by CLSI broth microdilution method

Escherichia coli [6] = assay: microbe, parasite or virus in culture; remark: listed apart in the source
Description: Antimicrobial activity against wild type Escherichia coli by CLSI broth microdilution method

Escherichia coli [7] = assay: Antimicrobial activity against Escherichia coli expressing beta-lactamase NDM-1 by CLSI broth microdilution method; format: functional
[8] = Chemical stability in pH 7.4 potassium phosphate buffer assessed as half life for compound hydrolysis at 37 degC by UPLC and mass spectrometry; format: physicochemical
Escherichia coli [9] = assay: microbe, parasite or virus in culture; remark: listed apart in the source
Description: Antimicrobial activity against Escherichia coli expressing beta-lactamase CMY-2 by CLSI broth microdilution method

Escherichia coli [10] = assay: microbe, parasite or virus in culture; remark: listed apart in the source
Description: Antimicrobial activity against Escherichia coli expressing beta-lactamase Oxa-48 by CLSI broth microdilution method

| SMILES | MIC (Escherichia coli [1]) [µg/mL] | MIC (Escherichia coli [2]) [µg/mL] | MIC (Escherichia coli [3]) [µg/mL] | MIC (Escherichia coli [4]) [µg/mL] | MIC (Escherichia coli [5]) [µg/mL] | MIC (Escherichia coli [6]) [µg/mL] | MIC (Escherichia coli [7]) [µg/mL] | half-life [8] [days] | MIC (Escherichia coli [9]) [µg/mL] | MIC (Escherichia coli [10]) [µg/mL] |
| --- | --- | --- | --- | --- | --- | --- | --- | --- | --- | --- |
| CC(C)(O/N=C(\C(=O)N[C@@H]1C(=O)N(S(=O)(=O)O)[C@@H]1Cn1ccc(N)n1)c1csc(N)n1)C(=O)O (stereo in doubt) | > 64 | > 64 | > 64 | > 64 | > 64 | > 64 | > 64 | 0.146 | – | – |
| CC(C)(O/N=C(\C(=O)N[C@@H]1C(=O)N(S(=O)(=O)O)[C@@H]1CN1CCCCC1=O)c1csc(N)n1)C(=O)O (stereo in doubt) | 8 (≈ 15 µM) | 8 (≈ 15 µM) | 16 (≈ 30 µM) | 4 (≈ 7.51 µM) | 4 (≈ 7.51 µM) | 4 (≈ 7.51 µM) | 8 (≈ 15 µM) | 8.92 | – | – |
| Cc1ncnn1C[C@@H]1[C@H](NC(=O)/C(=N\OC(C)(C)C(=O)O)c2csc(N)n2)C(=O)N1S(=O)(=O)O (stereo in doubt) | 4 (≈ 7.74 µM) | 2 (≈ 3.87 µM) | 8 (≈ 15.5 µM) | 4 (≈ 7.74 µM) | 8 (≈ 15.5 µM) | 4 (≈ 7.74 µM) | – | > 1.54 | 8 (≈ 15.5 µM) | – |
| CC(C)(O/N=C(\C(=O)N[C@@H]1C(=O)N(S(=O)(=O)O)[C@@H]1CN1CCC1=O)c1csc(N)n1)C(=O)O (stereo in doubt) | 4 (≈ 7.93 µM) | 4 (≈ 7.93 µM) | 64 (≈ 127 µM) | 8 (≈ 15.9 µM) | 16 (≈ 31.7 µM) | 2 (≈ 3.96 µM) | 2 (≈ 3.96 µM) | > 41.7 | – | – |
| CC(C)(O/N=C(\C(=O)N[C@@H]1C(=O)N(S(=O)(=O)O)[C@@H]1Cn1ncnc1CNC(=N)N)c1csc(N)n1)C(=O)O (stereo in doubt) | 16 (≈ 27.9 µM) | 32 (≈ 55.8 µM) | 32 (≈ 55.8 µM) | 16 (≈ 27.9 µM) | 16 (≈ 27.9 µM) | 16 (≈ 27.9 µM) | – | > 1.54 | 32 (≈ 55.8 µM) | – |
| CC(C)(O/N=C(\C(=O)N[C@@H]1C(=O)N(S(=O)(=O)O)[C@@H]1CN1CCCC1=O)c1csc(N)n1)C(=O)O (stereo in doubt) | 2 (≈ 3.86 µM) | 2 (≈ 3.86 µM) | 16 (≈ 30.9 µM) | 2 (≈ 3.86 µM) | 4 (≈ 7.71 µM) | 1 (≈ 1.93 µM) | 1 (≈ 1.93 µM) | > 41.7 | – | – |
| CN(C[C@@H]1[C@H](NC(=O)/C(=N\OC(C)(C)C(=O)O)c2csc(N)n2)C(=O)N1S(=O)(=O)O)C(=O)CN (stereo in doubt) | 4 (≈ 7.67 µM) | 8 (≈ 15.3 µM) | 16 (≈ 30.7 µM) | 4 (≈ 7.67 µM) | – | 4 (≈ 7.67 µM) | 4 (≈ 7.67 µM) | 8.83 | – | – |
| Cc1nnn(C[C@@H]2[C@H](NC(=O)/C(=N\OC(C)(C)C(=O)O)c3csc(N)n3)C(=O)N2S(=O)(=O)O)n1 (stereo in doubt) | 1 (≈ 1.93 µM) | 8 (≈ 15.5 µM) | 8 (≈ 15.5 µM) | 8 (≈ 15.5 µM) | 8 (≈ 15.5 µM) | 2 (≈ 3.86 µM) | 2 (≈ 3.86 µM) | – | – | – |
| CC(C)(O/N=C(\C(=O)N[C@@H]1C(=O)N(S(=O)(=O)O)[C@@H]1Cn1ncnc1CN)c1csc(N)n1)C(=O)O (stereo in doubt) | 2 (≈ 3.76 µM) | 4 (≈ 7.53 µM) | 8 (≈ 15.1 µM) | 4 (≈ 7.53 µM) | 4 (≈ 7.53 µM) | 2 (≈ 3.76 µM) | – | > 1.54 | 8 (≈ 15.1 µM) | – |
| CC(C)(O/N=C(/C(=O)N[C@@H]1C(=O)N(OS(=O)(=O)O)C1(C)C)c1csc(N)n1)C(=O)O (stereo in doubt) | 1 (≈ 2.15 µM) | 0.25 (≈ 0.537 µM) | 0.5 (≈ 1.07 µM) | > 32 | – | 0.25 (≈ 0.537 µM) | 0.25 (≈ 0.537 µM) | 4.17 | – | 0.25 (≈ 0.537 µM) |

Continued, values first:

| MIC (Escherichia coli [1]) [µg/mL] | MIC (Escherichia coli [2]) [µg/mL] | MIC (Escherichia coli [3]) [µg/mL] | MIC (Escherichia coli [4]) [µg/mL] | MIC (Escherichia coli [5]) [µg/mL] | MIC (Escherichia coli [6]) [µg/mL] | MIC (Escherichia coli [7]) [µg/mL] | half-life [8] [days] | MIC (Escherichia coli [9]) [µg/mL] | MIC (Escherichia coli [10]) [µg/mL] | SMILES |
| --- | --- | --- | --- | --- | --- | --- | --- | --- | --- | --- |
| 1 (≈ 1.83 µM) | 2 (≈ 3.67 µM) | 2 (≈ 3.67 µM) | 4 (≈ 7.33 µM) | 2 (≈ 3.67 µM) | 1 (≈ 1.83 µM) | – | > 1.54 | 4 (≈ 7.33 µM) | – | CC(C)(O/N=C(\C(=O)N[C@@H]1C(=O)N(S(=O)(=O)O)[C@@H]1Cn1cc(CCN)nn1)c1csc(N)n1)C(=O)O (stereo in doubt) |
| 1 (≈ 1.99 µM) | 16 (≈ 31.8 µM) | 2 (≈ 3.98 µM) | 16 (≈ 31.8 µM) | 32 (≈ 63.7 µM) | 1 (≈ 1.99 µM) | 1 (≈ 1.99 µM) | 4.71 | – | – | CC(C)(O/N=C(\C(=O)N[C@@H]1C(=O)N(S(=O)(=O)O)[C@@H]1Cn1cnnc1)c1csc(N)n1)C(=O)O (stereo in doubt) |
| 0.25 (≈ 0.551 µM) | 1 (≈ 2.21 µM) | 4 (≈ 8.82 µM) | 32 (≈ 70.6 µM) | – | 0.125 (≈ 0.276 µM) | 0.125 (≈ 0.276 µM) | 41.2 | – | 0.06 (≈ 0.132 µM) | CC(C)(O/N=C(/C(=O)N[C@@H]1C(=O)N(S(=O)(=O)O)[C@@H]1CF)c1csc(N)n1)C(=O)O (stereo in doubt) |
| 1 (≈ 1.99 µM) | 2 (≈ 3.98 µM) | 2 to 4 (≈ 3.98 to 7.96 µM) | 4 (≈ 7.96 µM) | 2 (≈ 3.98 µM) | 0.5 (≈ 0.995 µM) | 0.5 (≈ 0.995 µM) | 10.7 | 8 (≈ 15.9 µM) | – | CC(C)(O/N=C(\C(=O)N[C@@H]1C(=O)N(S(=O)(=O)O)[C@@H]1Cn1ccnn1)c1csc(N)n1)C(=O)O (stereo in doubt) |
| 0.5 (≈ 0.995 µM) | 1 (≈ 1.99 µM) | 8 (≈ 15.9 µM) | 1 (≈ 1.99 µM) | 2 (≈ 3.98 µM) | 0.5 (≈ 0.995 µM) | 0.5 (≈ 0.995 µM) | 40.8 | – | – | CC(C)(O/N=C(\C(=O)N[C@@H]1C(=O)N(S(=O)(=O)O)[C@@H]1Cn1nccn1)c1csc(N)n1)C(=O)O (stereo in doubt) |
| 0.25 (≈ 0.493 µM) | 4 (≈ 7.88 µM) | 0.5 (≈ 0.985 µM) | 8 (≈ 15.8 µM) | 2 (≈ 3.94 µM) | 0.25 (≈ 0.493 µM) | 0.125 (≈ 0.246 µM) | 6.21 | – | – | CC(C)(O/N=C(\C(=O)N[C@@H]1C(=O)N(S(=O)(=O)O)[C@@H]1CNC(=O)CN)c1csc(N)n1)C(=O)O (stereo in doubt) |
| 0.25 (≈ 0.436 µM) | 0.5 (≈ 0.872 µM) | 1 (≈ 1.74 µM) | 1 (≈ 1.74 µM) | 1 (≈ 1.74 µM) | 0.25 (≈ 0.436 µM) | – | > 1.54 | 0.5 (≈ 0.872 µM) | – | CC(C)(O/N=C(\C(=O)N[C@@H]1C(=O)N(S(=O)(=O)O)[C@@H]1Cn1cc(CNC(=N)N)nn1)c1csc(N)n1)C(=O)O (stereo in doubt) |
| 0.5 to 1 (≈ 0.961 to 1.92 µM) | 0.5 (≈ 0.961 µM) | 2 (≈ 3.84 µM) | 1 (≈ 1.92 µM) | 2 (≈ 3.84 µM) | 0.5 (≈ 0.961 µM) | 0.5 (≈ 0.961 µM) | 20.1 | 4 (≈ 7.68 µM) | – | CC(C)(O/N=C(\C(=O)N[C@@H]1C(=O)N(S(=O)(=O)O)[C@@H]1CN1CCOC1=O)c1csc(N)n1)C(=O)O (stereo in doubt) |
| 1 (≈ 1.92 µM) | 1 (≈ 1.92 µM) | 2 (≈ 3.85 µM) | 1 (≈ 1.92 µM) | 4 (≈ 7.7 µM) | 0.5 (≈ 0.962 µM) | 1 (≈ 1.92 µM) | > 41.7 | – | – | CC(C)(O/N=C(\C(=O)N[C@@H]1C(=O)N(S(=O)(=O)O)[C@@H]1CN1CCNC1=O)c1csc(N)n1)C(=O)O (stereo in doubt) |

From ChEMBL document CHEMBL4184210, “Optimization of novel monobactams with activity against carbapenem-resistant Enterobacteriaceae - Identification of LYS228” (Bioorg Med Chem Lett, 2018)
